What is called Ki is a dissociation constant, usually derived from enzyme kinetics or from competition with a known ligand. A high value points to a looser hold on the target.

This is an account of results in US8435980B2 (AbbVie Inc., priority 2009, dated 2013).

The test deals with T1, Cdc7 (BEV coexpressed huCDC7/DBF4) (Homo sapiens, UniProt O00311).
T1 construct: made in house; host or cells: BEV (baculovirus expression vector) co-expression; insect cells are implied but no cell line is named
Nature of the test: Cdc7 enzyme inhibition assay ([33P]ATP, biotinylated peptide substrate, FlashPlate). Format: biochemical. To be noted: Table 3; enzyme inhibition data (Ki). Here is the method: Cdc7 (BEV coexpressed huCDC7/DBF4) is prepared internally. Cdc7 assays are conducted as follows with final concentrations as listed. […] Reactions are quenched after 1 hr by the addition of 90 μL stop buffer (50 mM EDTA, 2M NaCl). […] (Ki) for exemplary compounds.

T1 sequence (O00311 whole entry): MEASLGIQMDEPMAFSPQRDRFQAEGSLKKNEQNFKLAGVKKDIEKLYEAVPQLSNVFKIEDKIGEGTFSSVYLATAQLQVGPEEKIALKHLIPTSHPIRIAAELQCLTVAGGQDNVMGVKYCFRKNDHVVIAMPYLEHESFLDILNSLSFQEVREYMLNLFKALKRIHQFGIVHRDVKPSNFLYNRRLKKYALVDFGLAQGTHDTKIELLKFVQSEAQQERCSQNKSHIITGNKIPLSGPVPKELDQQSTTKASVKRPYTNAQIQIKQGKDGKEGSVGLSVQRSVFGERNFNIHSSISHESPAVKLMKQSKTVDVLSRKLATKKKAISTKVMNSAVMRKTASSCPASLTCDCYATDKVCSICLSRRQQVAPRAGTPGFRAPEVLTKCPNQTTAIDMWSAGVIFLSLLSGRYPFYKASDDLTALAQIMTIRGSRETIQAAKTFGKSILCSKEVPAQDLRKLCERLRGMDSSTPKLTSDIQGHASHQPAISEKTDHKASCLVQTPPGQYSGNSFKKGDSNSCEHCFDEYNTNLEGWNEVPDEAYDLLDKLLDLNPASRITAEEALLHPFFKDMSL
T1 sequence (Q9UBU7 whole entry partner): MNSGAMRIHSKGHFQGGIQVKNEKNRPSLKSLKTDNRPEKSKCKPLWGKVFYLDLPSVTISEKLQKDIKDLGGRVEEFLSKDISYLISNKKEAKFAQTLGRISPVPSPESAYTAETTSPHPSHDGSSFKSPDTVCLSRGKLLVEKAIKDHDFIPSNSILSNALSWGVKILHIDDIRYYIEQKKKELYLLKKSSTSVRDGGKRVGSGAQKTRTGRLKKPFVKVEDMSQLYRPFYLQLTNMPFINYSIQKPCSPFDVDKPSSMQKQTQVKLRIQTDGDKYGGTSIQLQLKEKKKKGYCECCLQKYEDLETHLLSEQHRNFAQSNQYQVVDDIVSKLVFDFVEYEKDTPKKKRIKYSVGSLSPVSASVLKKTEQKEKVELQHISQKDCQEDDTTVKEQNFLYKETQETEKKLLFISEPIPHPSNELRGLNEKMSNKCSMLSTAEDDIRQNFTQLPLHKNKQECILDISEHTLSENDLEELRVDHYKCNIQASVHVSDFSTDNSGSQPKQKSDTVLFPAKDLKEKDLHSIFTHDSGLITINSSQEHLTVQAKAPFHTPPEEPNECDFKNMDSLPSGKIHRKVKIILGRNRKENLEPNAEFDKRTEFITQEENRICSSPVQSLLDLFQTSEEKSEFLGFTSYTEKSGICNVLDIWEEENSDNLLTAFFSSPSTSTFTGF

Consider `CCN(CCO)CC(=O)N[C@H]1CC[C@H](Nc2cc(-c3c[nH]c4ncc(OC)cc34)cc(Cl)n2)CC1` [Example 432, N-(trans-4-{[6-chloro-4-(5-methoxy-1H-pyrrolo[2,3-b]pyridin-3-yl)pyridin-2-yl]amino}cyclohexyl)-N~2~-ethyl-N~2~-(2-hydroxyethyl)glycinamide], for which the Ki is < 10 nM. The result for `COc1cnc2[nH]cc(-c3cc(Cl)nc(N[C@H]4CC[C@H](NC(=O)CNCCO)CC4)c3)c2c1` [Example 433, N-(trans-4-{[6-chloro-4-(5-methoxy-1H-pyrrolo[2,3-b]pyridin-3-yl)pyridin-2-yl]amino}cyclohexyl)-N~2~-(2-hydroxyethyl)glycinamide] reads < 10 nM; that for `CN(C)c1ccc(Nc2cc(-c3c[nH]c4ncccc34)cc(Cl)n2)cc1` [Example 434, N′-[6-chloro-4-(1H-pyrrolo[2,3-b]pyridin-3-yl)pyridin-2-yl]-N,N-dimethylbenzene-1,4-diamine], < 10 nM; that for `Clc1cc(-c2c[nH]c3ncccc23)cc(Nc2ccc3c(c2)CCC3)n1` [Example 435, 6-chloro-N-(2,3-dihydro-1H-inden-5-yl)-4-(1H-pyrrolo[2,3-b]pyridin-3-yl)pyridin-2-amine], < 10 nM. Regarding `Clc1cc(-c2c[nH]c3ncccc23)cc(Nc2ccc3c(c2)OCCO3)n1` [Example 436, 6-chloro-N-(2,3-dihydro-1,4-benzodioxin-6-yl)-4-(1H-pyrrolo[2,3-b]pyridin-3-yl)pyridin-2-amine], the inhibition constant Ki is < 10 nM. In the case of `Clc1cc(-c2c[nH]c3ncccc23)cc(Nc2ccc(N3CCOCC3)cc2)n1` [Example 438, 6-chloro-N-[4-(morpholin-4-yl)phenyl]-4-(1H-pyrrolo[2,3-b]pyridin-3-yl)pyridin-2-amine] it was < 10 nM; in that of `Clc1cc(-c2c[nH]c3ncccc23)cc(Nc2cccc3c2CCCC3)n1` [Example 439, 6-chloro-4-(1H-pyrrolo[2,3-b]pyridin-3-yl)-N-(5,6,7,8-tetrahydronaphthalen-1-yl)pyridin-2-amine], < 10 nM.

With `CC(C)(C)c1ccc(Nc2cc(-c3c[nH]c4ncccc34)cc(Cl)n2)cc1` [Example 440, N-(4-tert-butylphenyl)-6-chloro-4-(1H-pyrrolo[2,3-b]pyridin-3-yl)pyridin-2-amine], the inhibitory constant (Ki) was < 10 nM. Take `Clc1cc(-c2c[nH]c3ncccc23)cc(Nc2cccc3c2CCC3)n1` [Example 441, 6-chloro-N-(2,3-dihydro-1H-inden-4-yl)-4-(1H-pyrrolo[2,3-b]pyridin-3-yl)pyridin-2-amine]: the Ki is < 10 nM. As for `Clc1cc(-c2c[nH]c3ncccc23)cc(Nc2ccc3ncccc3c2)n1` [Example 442, N-[6-chloro-4-(1H-pyrrolo[2,3-b]pyridin-3-yl)pyridin-2-yl]quinolin-6-amine], the Ki is < 10 nM. Consider `CN1CCN(c2ccc(Nc3cc(-c4c[nH]c5ncccc45)cc(Cl)n3)cc2)CC1` [Example 443, 6-chloro-N-[4-(4-methylpiperazin-1-yl)phenyl]-4-(1H-pyrrolo[2,3-b]pyridin-3-yl)pyridin-2-amine], for which the Ki is < 10 nM. `O=S1(=O)CCN(c2ccc(Nc3cc(-c4c[nH]c5ncccc45)cc(Cl)n3)cc2)CC1` [Example 444, 6-chloro-N-[4-(1,1-dioxidothiomorpholin-4-yl)phenyl]-4-(1H-pyrrolo[2,3-b]pyridin-3-yl)pyridin-2-amine]: the Ki was < 10 nM. The result for `COc1cnc2[nH]cc(-c3cc(Cl)nc(N[C@H]4CC[C@H](NC(=O)CN[C@H]5CC[C@H](O)CC5)CC4)c3)c2c1` [Example 445, N-(trans-4-{[6-chloro-4-(5-methoxy-1H-pyrrolo[2,3-b]pyridin-3-yl)pyridin-2-yl]amino}cyclohexyl)-N~2~-(trans-4-hydroxycyclohexyl)glycinamide] reads < 10 nM; that for `COc1cnc2[nH]cc(-c3cc(Cl)nc(N[C@H]4CC[C@H](NC(=O)CNC(C)C)CC4)c3)c2c1` [Example 446, N-(trans-4-{[6-chloro-4-(5-methoxy-1H-pyrrolo[2,3-b]pyridin-3-yl)pyridin-2-yl]amino}cyclohexyl)-N~2~-propan-2-ylglycinamide], < 10 nM; that for `COc1cnc2[nH]cc(-c3cc(Cl)nc(NC4CCC(CC5CCC(NS(=O)(=O)c6c(C)noc6C)CC5)CC4)c3)c2c1` (centres unmarked) [Example 447, N-{4-[(4-{[6-chloro-4-(5-methoxy-1H-pyrrolo[2,3-b]pyridin-3-yl)pyridin-2-yl]amino}cyclohexyl)methyl]cyclohexyl}-3,5-dimethyl-1,2-oxazole-4-sulfonamide], < 10 nM. In the case of `COc1cnc2[nH]cc(-c3cc(Cl)nc(NC4CCCC(NC(=O)CN(C)C)C4)c3)c2c1` (centres unmarked) [Example 448, N-(3-{[6-chloro-4-(5-methoxy-1H-pyrrolo[2,3-b]pyridin-3-yl)pyridin-2-yl]amino}cyclohexyl)-N~2~,N~2~-dimethylglycinamide] it was < 10 nM; in that of `Clc1cc(-c2c[nH]c3ncccc23)cc(Nc2ccc(N3CCN(Cc4ccccn4)CC3)cc2)n1` [Example 449, 6-chloro-N-{4-[4-(pyridin-2-ylmethyl)piperazin-1-yl]phenyl}-4-(1H-pyrrolo[2,3-b]pyridin-3-yl)pyridin-2-amine], < 10 nM. On to `Clc1cc(-c2c[nH]c3ncccc23)cc(Nc2ccc(N3CCN(CC4CCCCC4)CC3)cc2)n1` [Example 450, 6-chloro-N-{4-[4-(cyclohexylmethyl)piperazin-1-yl]phenyl}-4-(1H-pyrrolo[2,3-b]pyridin-3-yl)pyridin-2-amine], for which the inhibition constant (Ki) is < 10 nM.

With `CC(C)CN1CCN(c2ccc(Nc3cc(-c4c[nH]c5ncccc45)cc(Cl)n3)cc2)CC1` [Example 451, 6-chloro-N-{4-[4-(2-methylpropyl)piperazin-1-yl]phenyl}-4-(1H-pyrrolo[2,3-b]pyridin-3-yl)pyridin-2-amine], the Ki was < 10 nM. Take `Nc1ccc(-c2cnc3[nH]cc(-c4cc(Cl)nc(N[C@H]5CC[C@H](NS(=O)(=O)C6CC6)CC5)c4)c3c2)cn1` [Example 452, N-[trans-4-({4-[5-(6-aminopyridin-3-yl)-1H-pyrrolo[2,3-b]pyridin-3-yl]-6-chloropyridin-2-yl}amino)cyclohexyl]cyclopropanesulfonamide]: the inhibition constant Ki is < 10 nM. For the molecule `O=S(=O)(N[C@H]1CC[C@H](Nc2cc(-c3c[nH]c4ncc(-c5cccnc5)cc34)cc(Cl)n2)CC1)C1CC1` [Example 453, N-[trans-4-({6-chloro-4-[5-(pyridin-3-yl)-1H-pyrrolo[2,3-b]pyridin-3-yl]pyridin-2-yl}amino)cyclohexyl]cyclopropanesulfonamide], the inhibitory constant (Ki) is < 10 nM. For `NS(=O)(=O)c1cccc(-c2cnc3[nH]cc(-c4cc(Cl)nc(N[C@H]5CC[C@H](NS(=O)(=O)C6CC6)CC5)c4)c3c2)c1` [Example 454, 3-{3-[2-chloro-6-({trans-4-[(cyclopropylsulfonyl)amino]cyclohexyl}amino)pyridin-4-yl]-1H-pyrrolo[2,3-b]pyridin-5-yl}benzenesulfonamide], the Ki was < 10 nM. With `O=S(=O)(N[C@H]1CC[C@H](Nc2cc(-c3c[nH]c4ncc(-c5cncnc5)cc34)cc(Cl)n2)CC1)C1CC1` [Example 455, N-[trans-4-({6-chloro-4-[5-(pyrimidin-5-yl)-1H-pyrrolo[2,3-b]pyridin-3-yl]pyridin-2-yl}amino)cyclohexyl] cyclopropanesulfonamide], the inhibitory constant (Ki) was < 10 nM. In the case of `C[C@@H](Nc1nc(Cl)cc(-c2c[nH]c3ncccc23)n1)c1ccccc1` [Example 456, 4-chloro-N-[(1R)-1-phenylethyl]-6-(1H-pyrrolo[2,3-b]pyridin-3-yl)pyrimidin-2-amine] it was < 10 nM; in that of `Oc1cccc(CNc2nc(Cl)cc(-c3c[nH]c4ncccc34)n2)c1` [Example 457, 3-({[4-chloro-6-(1H-pyrrolo[2,3-b]pyridin-3-yl)pyrimidin-2-yl]amino}methyl)phenol], < 10 nM. The result for `Oc1ccc(CNc2nc(Cl)cc(-c3c[nH]c4ncccc34)n2)cc1` [Example 458, 4-({[4-chloro-6-(1H-pyrrolo[2,3-b]pyridin-3-yl)pyrimidin-2-yl]amino}methyl)phenol] reads < 10 nM; that for `CN(C)C1CCC(Nc2nc(Cl)cc(-c3c[nH]c4ncccc34)n2)CC1` (centres unmarked) [Example 459, N′-[4-chloro-6-(1H-pyrrolo[2,3-b]pyridin-3-yl)pyrimidin-2-yl]-N,N-dimethylcyclohexane-1,4-diamine], < 10 nM; that for `NC1CCC(CC2CCC(Nc3nc(Cl)cc(-c4c[nH]c5ncccc45)n3)CC2)CC1` (centres unmarked) [Example 465, N-{4-[(4-aminocyclohexyl)methyl]cyclohexyl}-4-chloro-6-(1H-pyrrolo[2,3-b]pyridin-3-yl)pyrimidin-2-amine], < 10 nM. The result for `NCCNc1nc(Cl)cc(-c2c[nH]c3ncccc23)n1` [Example 466, N-[4-chloro-6-(1H-pyrrolo[2,3-b]pyridin-3-yl)pyrimidin-2-yl]ethane-1,2-diamine] reads < 10 nM; that for `OCCNc1nc(Cl)cc(-c2c[nH]c3ncccc23)n1` [Example 467, 2-{[4-chloro-6-(1H-pyrrolo[2,3-b]pyridin-3-yl)pyrimidin-2-yl]amino}ethanol], < 10 nM; that for `NCCOCCOCCNc1nc(Cl)cc(-c2c[nH]c3ncccc23)n1` [Example 468, N-{2-[2-(2-aminoethoxy)ethoxy]ethyl}-4-chloro-6-(1H-pyrrolo[2,3-b]pyridin-3-yl)pyrimidin-2-amine], < 10 nM.

In the case of `O=C(NC1CCCC1)N[C@H]1CC[C@H](Nc2nc(Cl)cc(-c3c[nH]c4ncccc34)n2)CC1` [Example 470, 1-(trans-4-{[4-chloro-6-(1H-pyrrolo[2,3-b]pyridin-3-yl)pyrimidin-2-yl]amino}cyclohexyl)-3-cyclopentylurea], the inhibition constant (Ki) was < 10 nM.
